Data reported in US7741280B2, “Multimeric molecules, the preparation method thereof and use of same for the preparation of medicaments” (Centre National de la Recherche Scientifique, priority 2002, dated 2010).
Where a SMILES comes first, the peptide text is derived from it. Where no end group is shown, it is not given here. Side-chain parts run from the residue outwards. [ ]: non-standard residue; d: D form. β3hK = NCCCC[C@H](N)CC(=O)O; Ahx = NCCCCCC(=O)O

Assays:
[1] = biological target: T1, human CD40 muIg fusion protein (UniProt P01863+P25942); experiment: Biacore3000 surface plasmon resonance study of the CD40/CD40L interaction and the ligands; format: binding; conditions: in the presence of 100 nM of CD40L
T1 construct: purchased ANCELL Corporation, Bayport, Minn
Source text: The Biacore3000 is a device which allows the interactions between two molecules to be studied, based on the surface plasmon resonance. It allows measurement in real time, and therefore allows the kinetics of interaction (association and disassociation) of an analyte (which is in an injected solution) and of a ligand (immobilised on a microchip supporting the measurement) to be monitored. The kinetic measurements at different concentrations of analyte allow calculation of the affinity constants of the interaction between the ligand and the analytes. The microchip contains four cells for different measurements, which allows direct comparison of a reference cell on which a protein which is not pertinent (protein which has no affinity with the ligand studied), but close to the ligand is immobilised with the cell on which the ligand is immobilised.
(§1) Rabbit antibodies directed against the constant region of mouse immunoglobulins were immobilized on a microchip. In the reference cell a monoclonal mouse antibody of isotype IgG2a (LG112) at 40 nM is immobilized with a flow of 5 μL/min for 2 minutes; in the cell of the ligand the recombinant CD40 associated with the constant region of the mouse IgG2a heavy chain (human CD40 muIg fusion protein, ANCELL Corporation, Bayport, Minn.) is immobilized under the same conditions.
On the two cells (reference and ligand), the CD40L (human CD154 muCD8 fusion protein, ANCELL Corporation) at different concentrations or the CD40L at a concentration of 1 μM or of 125 nM, are injected, as analyte, in the presence of different concentrations of ligands. The flow in the presence of the analytes is 10 μL/min for 5 minutes to study the association and, in the absence of analytes, the conditions are the same to study the dissociation.
In order to regenerate the cells (i.e. remove all the proteins adsorbed in a non-covalent manner), a solution of 10 mM of HCl is injected at 5 μL/min for 1 minute. The cells are then ready for another analysis.

[2] = test system: BL41 Burkitt's lymphoma cells; experiment: Apoptosis of BL41 cells (Annexin V-FITC / propidium iodide flow cytometry); format: cell-based; conditions: 24 hours culture, FIG. 4B, 50 to 6 μM
Method: Apoptosis is measured by flow cytometry after labelling with annexin V FITC and propidium iodide. Cells labelled with annexin V alone or with annexin V and propidium iodide are considered apoptotic. The percentage of specific apoptosis is calculated by the following formula: [(% apoptosis with ligand−% apoptosis without ligand)/(100−% apoptosis without ligand)]×100
(§2) The second test is based on the property of certain B lymphomas to cease proliferation and enter apoptosis during the bridging of their membranous CD40 molecule (Tong et al., 1999). In this test, the BL41 cells are incubated with ligands CD40 and after 24 hours either the inhibition of proliferation of these cells is measured, by studying the incorporation of tritiated thymidine, or the percentage of apoptotic cells is measured with a flow cytometry study (FIGS. 4A and 4B).
(§3) Certain B lymphomas enter apoptosis when their CD40 molecule is bridged by an anti-CD40 antibody or by CD40L which is soluble independently from the CD95 molecule. This induction of apoptosis is expressed as a decrease in proliferation measured by the incorporation of tritiated thymidine. The agonist ligands of CD40 will induce an increase in apoptosis and as a result a decrease in the incorporation of tritiated thymidine.
The BL41 Burkitt's lymphoma cells (4.10^5/mL) are cultured in the presence of the different ligands at the chosen concentration. […]

CD40-CD40L interaction [3] = biological target: T2, CD40-CD40L interaction (Homo sapiens, UniProt P25942); experiment: Expression of CD95 induced by CD40L on BL41 cells cultured with 3T6-CD40L fibroblasts (flow cytometry); format: cell-based; conditions: concentration of 50 μM
T2 construct: they receive a signal via the CD40 molecule, which they express in a constitutive manner; endogenous in cells; host or cells: BL41 Burkitt's lymphoma cells (endogenous CD40), co-cultured with 3T6 fibroblasts transfected with CD40L

CD40-CD40L interaction [4] = biological target: T2, CD40-CD40L interaction; experiment: as above; format: cell-based; conditions: for % of inhibition of the expression of CD95 induced by CD40L: BL41 + 3T6-CD40L, 48 hours; for effect on the expression of CD95 induced by CD40L (in words): BL41 cells in the presence of 3T6-CD40L cells, no concentration stated
Method: Then, the affinity of these ligands for the CD40 molecule is evaluated using a biosensor (BIAcore™). The agonist or antagonist effect of the ligands was tested using two simple biological tests. In the first, the expression of the membranous molecule CD95 by transformed B cells (Burkitt's lymphoma) is studied after activation by the CD40-CD40L interaction (Schattner et al., 1996). In such a model, the CD40L partner is expressed on transfected fibroblasts (3T6-CD40L) (Buelens et al., 1997). The BL41 Burkitt's lymphoma cells are incubated with non-transfected 3T6 fibroblasts (FIGS. 3A and 3C) or with 3T6 fibroblasts transfected by CD40L (FIGS. 3B and 3D). After 48 hours, the expression of CD95 is evaluated by flow cytometry. The expression of CD95 is induced in the presence of CD40L (FIG. 3B). A commercial anti-CD40L antibody inhibits the consequences of the CD40-CD40L interaction (FIG. 3D).
The antagonist effect is evaluated by measurement of the decrease in the expression of CD95 induced by the CD40L in the presence of the different chemical ligands (see Table I). With the help of these tests, the most interesting ligands are chosen to evaluate their activity in vivo and in vitro in more complex models.
The lymphoma B cells express the CD95 molecule when they receive a signal via the CD40 molecule, which they express in a constitutive manner. This signal is generally conveyed by the CD40L (CD154) molecule expressed by another cell. The antagonist ligands inhibit the binding of CD40 on CD40L and thus […] the expression of CD95. The agonist ligands copy the CD40L molecule and induce the expression of CD95 even in the absence of the cell expressing CD40L.
The BL41 Burkitt's lymphoma cells (5.10^5/ml) are cultured in the presence of 3T6 fibroblasts (10^5/ml) transfected (3T6-CD40L) or not transfected with CD40L (3T6), and treated with mitomycin to stop their proliferation. The ligands are added at the start of the culture at the chosen concentration. After culture for 48 hours, expression of the CD95 molecule is measured by flow cytometry. The BL41 cells are distinguished from the fibroblasts using an anti-CD19 antibody (specific marker of the B cells).

[5] = test system: BL41 Burkitt's lymphoma cells; experiment: Inhibition of proliferation of BL41 cells (incorporation of tritiated thymidine); format: cell-based; conditions: 24 hours culture, FIG. 4A, 50 μM to 50 nM
Method: Tritiated thymidine was added at a concentration of 1 μci/well (0.8.10^5 cells/well) for the last 8 hours of culture and the incorporation of tritiated thymidine measured using a gaseous scintillation β counter.
as §2, §3
The BL41 Burkitt's lymphoma cells (4.10^5/mL) are cultured in the presence of the different ligands at the chosen concentration. After 24 hours, the cells are either incubated for 8 hours with tritiated thymidine (1 μci/well) to measure the proliferation or are labelled with Annexin V-FITC and propidium iodide to evaluate the percentage of apoptotic cells with flow cytometry.

[6] = biological target: T3, human CD40 muIg fusion protein (recombinant CD40 associated with the constant region of the mouse IgG2a heavy … (human; mouse, UniProt P25942 21-193, limits assumed); experiment: SPR (Biacore 3000), inhibition of the binding of 100 nM CD40L to captured CD40 muIg
T3 construct: Bought reagent; Captured on the Biacore chip through rabbit anti-mouse immunoglobulin antibodies; not shown: constant region of the mouse IgG2a heavy chain
Method: as §1, with “µL/min” for “μL/min”
(§4) The flow in the presence of the analytes is 10 µL/min for 5 minutes to study the association and, in the absence of analytes, the conditions are the same to study the dissociation.
(§5) The association of L4, L7 (and of its derivatives), L8, L9 L11 and L12 was studied in the presence of 100 nM of CD40L. Only the L4 and L9 molecules bind to CD40 and displace CD40L. The kinetic analysis in the presence of 40 and 80 nM of L4 produced an equilibrium constant for L4 of 180 nM.

[7] = biological target: T3, human CD40 muIg fusion protein …; experiment: SPR (Biacore 3000), kinetic analysis with 40 and 80 nM L4 in the presence of 100 nM CD40L over captured CD40 muIg
Method: as §1, with “µL/min” for “μL/min”
as §4, §5

[8] = biological target: T3, human CD40 muIg fusion protein …; experiment: SPR (Biacore 3000), kinetic analysis with 2.5 µM L3 in the presence of 125 nM CD40L over captured CD40 muIg
Method: as §1, with “µL/min” for “μL/min”
as §4

T3 sequence (P25942 21-193 limits assumed): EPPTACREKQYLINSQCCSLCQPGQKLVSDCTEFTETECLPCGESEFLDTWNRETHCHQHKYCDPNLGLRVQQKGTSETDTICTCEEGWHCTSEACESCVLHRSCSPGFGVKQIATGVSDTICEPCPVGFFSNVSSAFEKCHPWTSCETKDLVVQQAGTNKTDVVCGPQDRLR
T2 sequence (P25942 21-277): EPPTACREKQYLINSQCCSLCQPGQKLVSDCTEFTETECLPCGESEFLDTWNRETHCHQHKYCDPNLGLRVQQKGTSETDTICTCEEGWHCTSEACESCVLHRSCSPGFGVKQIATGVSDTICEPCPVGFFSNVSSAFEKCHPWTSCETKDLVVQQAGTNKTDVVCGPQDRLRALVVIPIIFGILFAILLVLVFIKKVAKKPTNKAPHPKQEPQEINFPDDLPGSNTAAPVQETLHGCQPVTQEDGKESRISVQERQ
T1 sequence (P25942+P01863 fused): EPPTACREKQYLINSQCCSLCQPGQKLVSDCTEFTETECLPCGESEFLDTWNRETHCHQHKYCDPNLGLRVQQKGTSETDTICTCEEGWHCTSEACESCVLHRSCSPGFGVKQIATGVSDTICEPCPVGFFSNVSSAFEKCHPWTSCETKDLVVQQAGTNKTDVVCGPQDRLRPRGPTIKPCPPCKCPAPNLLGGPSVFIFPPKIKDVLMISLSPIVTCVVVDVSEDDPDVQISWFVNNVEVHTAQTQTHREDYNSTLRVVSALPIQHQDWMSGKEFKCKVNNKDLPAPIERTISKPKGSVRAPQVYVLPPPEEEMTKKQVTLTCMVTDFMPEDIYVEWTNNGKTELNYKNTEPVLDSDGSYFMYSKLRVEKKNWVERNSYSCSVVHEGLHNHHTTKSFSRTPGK

Molecule: L11: constituted by the single peptide sequence (KGYY-{Ahx-OH})
- binding to CD40 and displacement of CD40L (in words) [1]: Only the L4 and L9 molecules bind to CD40
- apoptosis of BL41 cells (in words) [2]: no effect

Molecule: C[C@H]1NC(=O)[C@H](CCCCNC(=O)CCCCCNC(=O)[C@H](Cc2ccc(O)cc2)NC(=O)[C@H](Cc2ccc(O)cc2)NC(=O)CNC(=O)[C@@H](N)CCCCN)NC(=O)[C@@H](C)NC(=O)[C@H](CCCCNC(=O)CCCCCNC(=O)[C@H](Cc2ccc(O)cc2)NC(=O)[C@H](Cc2ccc(O)cc2)NC(=O)CNC(=O)[C@@H](N)CCCCN)NC(=O)[C@@H](C)NC(=O)[C@H](CCCCNC(=O)CCCCCNC(=O)[C@H](Cc2ccc(O)cc2)NC(=O)[C@H](Cc2ccc(O)cc2)NC(=O)CNC(=O)[C@@H](N)CCCCN)NC1=O [L4] (cyclo(K([Ahx-Tyr-Tyr-Gly-Lys])[dA]K([Ahx-Tyr-Tyr-Gly-Lys])[dA]K([Ahx-Tyr-Tyr-Gly-Lys])[dA]))
- cell mortality (CD40-CD40L interaction [3]): substantial cell mortality
- % of inhibition of the expression of CD95 induced by CD40L (CD40-CD40L interaction [4]; ligand 0.5 μM): 19%
- % of inhibition of the expression of CD95 induced by CD40L (CD40-CD40L interaction [4]; ligand 5 μM): 36%
- % of inhibition of the expression of CD95 induced by CD40L (CD40-CD40L interaction [4]; ligand 10 μM): 40%
- % of inhibition of the expression of CD95 induced by CD40L (CD40-CD40L interaction [4]; ligand 50 μM): 22%

Molecule: NCCCC[C@H](N)C(=O)NCC(=O)N[C@@H](Cc1ccc(O)cc1)C(=O)N[C@@H](Cc1ccc(O)cc1)C(=O)NCCCCCC(=O)NCCCOCC(COCCCNC(=O)CCCCCNC(=O)[C@H](Cc1ccc(O)cc1)NC(=O)[C@H](Cc1ccc(O)cc1)NC(=O)CNC(=O)[C@@H](N)CCCCN)(COCCCNC(=O)CCCCCNC(=O)[C@H](Cc1ccc(O)cc1)NC(=O)[C@H](Cc1ccc(O)cc1)NC(=O)CNC(=O)[C@@H](N)CCCCN)NC(=O)CCC(N)=O [L7]
- binding to CD40 and displacement of CD40L (in words) [1]: Only the L4 and L9 molecules bind to CD40
- inhibition of the proliferation of BL41 cells (in words) [5]: only have a small or no effect
- effect on the expression of CD95 induced by CD40L (in words) (CD40-CD40L interaction [4]): no effect
- % of inhibition of the expression of CD95 induced by CD40L (CD40-CD40L interaction [4]; ligand 0.5 μM): 0%
- % of inhibition of the expression of CD95 induced by CD40L (CD40-CD40L interaction [4]; ligand 5 μM): 0%
- % of inhibition of the expression of CD95 induced by CD40L (CD40-CD40L interaction [4]; ligand 50 μM): 0%

Molecule: L4a: same core molecule as L4 but only 2 examples of the peptide sequence (chain [dA]K[dA]K[dA]K; peptide H-KGYY[Ahx]; also: two copies of chain 2 linked via Ahx to two Lys ε-amines of chain 1, which Lys not given here, head-to-tail to a chain's N/C-terminus)
- apoptosis of BL41 cells (in words) [2]: very weak apoptosis
- effect on the expression of CD95 induced by CD40L (in words) (CD40-CD40L interaction [4]): only very weakly inhibits
- % of inhibition of the expression of CD95 induced by CD40L (CD40-CD40L interaction [4]; ligand 0.5 μM): 0%
- % of inhibition of the expression of CD95 induced by CD40L (CD40-CD40L interaction [4]; ligand 5 μM): 8%
- % of inhibition of the expression of CD95 induced by CD40L (CD40-CD40L interaction [4]; ligand 50 μM): 13%

B1: Compound L4 (ligand L4): cyclic core structure with 3 examples of the peptide sequence mimicking the CD40-CD40L interface (peptide)
chain: [dA]K[dA]K[dA]K
peptide: H-KGYY[Ahx]
modifications: also: three H-KGYY-Ahx- arms, one on the epsilon-amine of each core Lys, head-to-tail to a chain's N/C-terminus
- IC50 [6]: 80 nM
- Kd [7]: 180 nM

B2: Compound L9 (ligand L9): cyclic core structure different from that of L4 with 3 examples of the same peptide sequence (peptide)
chain: [β3hK]-[β3hK]-[β3hK]
peptide: H-KGYY[Ahx]
modifications: also: three H-KGYY-Ahx- arms, one on each side-chain amine of the core, head-to-tail to a chain's N/C-terminus
- IC50 [6]: < 50 nM

B3: soluble CD40L: soluble CD40L molecule used as positive control on BL41 cells (protein)
chain: MQKGDQNPQIAAHVISEASSKTTSVLQWAEKGYYTMSNNLVTLENGKQLTVKRQGLYYIYAQVTFCSNREASSQAPFIASLCLKSPGRFERILLRAANTHSSAKPCGQQSIHLGGVFELQPGASVFVNVTDPSQVSHGTGFTSFGLLKL
- inhibition of the proliferation of BL41 cells (in words) [5]: greatly inhibits

B4: Compound L3 (ligand L3) (peptide)
chain: KKKKA
peptide: KGYY
modifications: also: core Lys joined through epsilon-amines (isopeptide bonds), KGYY arms on free amines of core Lys, Tyr C-terminus amide-linked directly to core amine, no spacer
notes: also called linear ligand
- Kd [8]: 10000 nM
